Where two headings read alike, the source gives them in different places. Values belong to the compound of their own block, whether it stands above or below them.
Tests used:
[1] = Assessment of formulation components: solubility in non-aqueous solvents; type: physicochemical
Procedure: A series of experiments were performed to assess and optimize the components of the subject formulations. AA refers to L-ascorbic acid. U refers to urea. % values are wt %.
Additional ingredients were chosen for their compatibility with (e.g., miscibility in) 1,3 propanediol, 1,2 propanediol, and 1,3 butanediol.

[2] = in most solvents; cited from earlier work
skin [3] = settings: cited from earlier work
skin [4] = settings: concentrations of 0.2%; clinical data from SEPPIC; cited from earlier work

Compound: COc1cc(CC(C(C)=O)C(C)=O)ccc1O [Acetyl zingerone]
solubility ([1]; in 1,3 propanediol, 1,2 propanediol and 1,3 butanediol at the desired concentrations (0.5-1%)): readily soluble

Compound: O=C(O)CCCCCCCC(=O)O [AzA, Azelaic acid, reference compound]
change of solubility by the presence of hydroxyethyl urea ([1]; in 1,3 propanediol): slightly increased
concentration that can be solubilized ([1]; in 1,3 propanediol): up to 10%
concentration that is possible to solubilize ([1]; with 10% AA, 5% U in a 1,3 propanediol base): 7.5%
solubility [2]: very poorly soluble

Compound: CC(C)(CO)[C@@H](O)C(=O)NCCCO [Panthenol]
concentration at which inhibition of transepidermal water loss is apparent (skin [3]): ≥ 1%

Compound: CC1(C)[C@@H](O[C@H]2O[C@H](C(=O)O)[C@@H](O)[C@H](O)[C@H]2O[C@@H]2O[C@H](C(=O)O)[C@@H](O)[C@H](O)[C@H]2O)CC[C@]2(C)[C@H]3C(=O)C=C4[C@@H]5C[C@@](C)(C(=O)O)CC[C@]5(C)CC[C@@]4(C)[C@]3(C)CC[C@@H]12 [glycyrrhizic acid, Glycyrrhizic acid]
solubility ([1]; in 1,3-propanediol): shows solubility

More lines, main results first:

ability of solvent to solubilize urea ([1]; solvent 1,2-hexanediol): moderate
ability of solvent to solubilize urea ([1]; solvent 1,2-propanediol (propylene glycol)): moderate
ability of solvent to solubilize urea ([1]; solvent 1,3-butanediol (butylene glycol)): moderate
ability of solvent to solubilize urea ([1]; solvent 1,3-propanediol): moderate
ability of solvent to solubilize urea ([1]; solvent 1,5-pentanediol, otherwise referred to as pentylene glycol): moderate
ability of solvent to solubilize urea ([1]; solvent dimethyl isosorbide): very limited
ability of solvent to solubilize urea ([1]; solvents glycerin and diglycerin): moderate
Compound: NC(N)=O [urea]

solubility ([1]; at a concentration of 0.2% in 1,3 propanediol, 1,2 propanediol and 1,3 butanediol): soluble
Compound: Madecassoside
ability to reduce erythema (skin redness) (skin [4]): desirable ability to reduce erythema
